From article PMC7142710, “Identification of a Key Enzyme for the Hydrolysis of β-(1→3)-Xylosyl Linkage in Red Alga Dulse Xylooligosaccharide from Bifidobacterium Adolescentis” (Marine Drugs, 2020)

Experiments:
Assay in all cases: HPLC-RI of hydrolysis products
Type in all cases: biochemical
BAD1527 = biological target: T1, BAD1527 (Bifidobacterium adolescentis, UniProt A1A3M5); conditions: 10 mM substrate, 50 μg/mL enzyme, 20 mM sodium phosphate pH 6.5, 37 °C, 1 h; weak substrate
T1 construct: gene xynD; full length, N-terminal His-tag (pET28a), no signal peptide, E. coli BL21(DE3), TALON purified
T1 sequence (A1A3M5 1-345): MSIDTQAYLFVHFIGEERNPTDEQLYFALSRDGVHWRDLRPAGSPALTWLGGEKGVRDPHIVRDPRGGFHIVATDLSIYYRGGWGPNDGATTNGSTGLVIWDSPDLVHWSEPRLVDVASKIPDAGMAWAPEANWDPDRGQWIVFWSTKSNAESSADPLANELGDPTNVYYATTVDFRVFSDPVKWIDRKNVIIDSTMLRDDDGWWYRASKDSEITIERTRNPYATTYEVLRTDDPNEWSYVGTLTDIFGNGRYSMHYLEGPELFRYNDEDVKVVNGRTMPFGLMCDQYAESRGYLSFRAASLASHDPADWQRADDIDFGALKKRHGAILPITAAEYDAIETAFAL

BAD0428 = biological target: T2, BAD0428 (Bifidobacterium adolescentis, UniProt A1A0H6); conditions: 10 mM substrate, 50 μg/mL enzyme, 20 mM sodium phosphate pH 6.5, 37 °C, 1 h; product xylose
T2 construct: gene xynB; full length, N-terminal His-tag (pET28a), no signal peptide, E. coli BL21(DE3), TALON purified
T2 sequence (A1A0H6 1-543): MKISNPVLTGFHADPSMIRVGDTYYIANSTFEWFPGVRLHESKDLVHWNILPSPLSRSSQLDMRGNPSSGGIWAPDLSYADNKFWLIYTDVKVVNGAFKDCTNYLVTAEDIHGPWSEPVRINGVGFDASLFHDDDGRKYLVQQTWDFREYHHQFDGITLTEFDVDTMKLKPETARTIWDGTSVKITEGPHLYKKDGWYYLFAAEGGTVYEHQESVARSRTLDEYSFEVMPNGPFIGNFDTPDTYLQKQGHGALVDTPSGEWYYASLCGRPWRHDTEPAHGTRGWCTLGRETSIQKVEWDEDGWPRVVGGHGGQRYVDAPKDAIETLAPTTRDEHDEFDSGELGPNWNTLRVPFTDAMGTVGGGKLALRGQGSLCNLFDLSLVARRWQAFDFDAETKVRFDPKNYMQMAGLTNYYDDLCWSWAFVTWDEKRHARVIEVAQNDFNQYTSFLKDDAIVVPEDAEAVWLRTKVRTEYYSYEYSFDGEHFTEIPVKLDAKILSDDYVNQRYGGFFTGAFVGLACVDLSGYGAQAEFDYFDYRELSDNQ

BAD0423 = biological target: T3, BAD0423 (Bifidobacterium adolescentis, UniProt A1A0H1); conditions: 10 mM substrate, 50 μg/mL enzyme, 20 mM sodium phosphate pH 6.5, 37 °C, 1 h; products xylose and xylobiose
T3 construct: gene BAD_0423; full length, N-terminal His-tag (pET28a), no signal peptide, E. coli BL21(DE3), TALON purified
T3 sequence (A1A0H1 1-564): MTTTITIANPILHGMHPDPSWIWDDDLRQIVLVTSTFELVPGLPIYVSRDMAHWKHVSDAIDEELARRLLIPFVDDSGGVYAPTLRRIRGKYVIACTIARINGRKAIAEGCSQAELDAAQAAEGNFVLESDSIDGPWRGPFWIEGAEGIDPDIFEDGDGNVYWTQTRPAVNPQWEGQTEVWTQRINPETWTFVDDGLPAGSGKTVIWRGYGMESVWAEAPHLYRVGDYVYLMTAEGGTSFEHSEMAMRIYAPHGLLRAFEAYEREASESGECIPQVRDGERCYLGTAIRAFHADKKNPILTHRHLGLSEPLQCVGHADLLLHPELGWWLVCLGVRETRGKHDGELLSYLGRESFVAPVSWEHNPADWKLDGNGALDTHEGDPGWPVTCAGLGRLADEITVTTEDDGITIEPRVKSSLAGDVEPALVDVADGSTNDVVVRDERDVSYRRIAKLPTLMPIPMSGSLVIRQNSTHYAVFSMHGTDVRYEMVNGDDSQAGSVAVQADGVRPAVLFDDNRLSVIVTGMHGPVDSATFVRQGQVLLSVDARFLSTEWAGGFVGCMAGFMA

OC1OC[C@@H](O[C@@H]2OC[C@@H](O)[C@H](O[C@@H]3OC[C@@H](O)[C@H](O)[C@H]3O)[C@H]2O)[C@H](O)[C@H]1O (stereo partly drawn) [DX3, 2^3-β-D-xylosyl-xylobiose] was tested, and the specific activity (BAD1527) was “specific activity of BAD0423, BAD0428, and BAD1527 on DX3 was determined by HPLC”, the specific activity (BAD0428) was “specific activity of BAD0423, BAD0428, and BAD1527 on DX3 was determined by HPLC” and the specific activity (BAD0423) was “BAD0423 showed low activities on X2 and X3 but high activity on DX3”.
